{"source": "patent US4250329A", "about": "“Carbonylation process” (priority 1979, dated 1981)", "key": {"[1]": {"protocol": "This conversion is run at elevated pressures, preferably from 1,500 to 3,000 psi. Reaction temperatures will range from 50° C. to 200° C., with a range of 100° C. to 150° C. preferred. Ratio of H2 to CO used will vary with reaction conditions; preferably a 1 to 1 ratio is maintained. The catalyst concentration will range from 0.01 to 20% based on the weight feed, with 0.05 to 10% preferred.\n30 ml. of hexene-1, 20 ml. of benzene, and 0.3 gm. […] The bomb was heated to 140° C. and held until the reaction was complete."}, "[2]": {"test": "Carbonylation of methanol to methyl acetate", "parameters": "methyl acetate (drawing 15) produced: unit not given here", "settings": "for % Conversion (Table II) / % Selectivity (Table II; additional product was dimethyl ether): 1000 psi; for methyl acetate (drawing 17): the values are: methyl acetate volume produced; for methyl acetate (drawing 15) produced / CH3 OH consumed: 20 hour", "protocol": "(THF)4 Mg[Co(CO)3 P(C4 H9)3 ]2 +CH3 I catalyst system\nReaction conditions: 175° C., 1000 psi"}, "[3]": {"test": "Hydroformylation of propylene", "settings": "133 °C", "source_text": "[table 17: the next 25 blocks are its lines as printed, fixed-width]"}, "[4]": {"test": "Carbonylation of methanol to methyl acetate", "settings": "175° C."}, "[5]": {"settings": "1500 psi 1:1 H2:CO, 140° C., 0.3 gm catalyst"}, "[6]": {"settings": "catalyst 2.0 mmole, CH3I 8.0 mmole, 67 hour, 175° C."}, "[7]": {"settings": "catalyst 1.0 mmole, CH3I 8.0 mmole, 21 hour, 175° C."}, "[8]": {"settings": "cocatalyst 8.0 mmole, 19 hr, 1.0 mmole catalyst, 175° C., 1000 psi CO"}, "[9]": {"settings": "CH3I 1.6 mmole, 18 hr, 175° C., 1000 psi CO, no reaction occurs"}, "[10]": {"settings": "CH3I 4.0 mmole, 18 hr, 175° C., 1000 psi CO"}, "[11]": {"settings": "CH3I 6.0 mmole, 18 hr, 175° C., 1000 psi CO"}, "[12]": {"settings": "CH3I 8.0 mmole, 3.25 hr, 175° C., 4000 psig CO"}, "[13]": {"settings": "CH3I 8.0 mmole, 18 hr, 175° C., 1000 psi CO"}, "[14]": {"settings": "CH3I 12.0 mmole, 18 hr, 175° C., 1000 psi CO"}, "[15]": {"settings": "CH3I 16.0 mmole, 18 hr, 175° C., 1000 psi CO"}, "[16]": {"settings": "CH3I 48.0 mmole, 17 hr, 175° C., 1000 psi CO"}, "[17]": {"settings": "cocatalyst 8.0 mmole, 18 hr, 1.0 mmole catalyst, 175° C., 1000 psi CO"}, "[18]": {"settings": "cocatalyst 8.0 mmole, 90 hr, 1.0 mmole catalyst, 175° C., 1000 psi CO"}}, "note": "Several values for one entry are separate records, joined by “and”; a condition that tells them apart may be missing. Identical values can stand only once. Like-named read-outs stand apart in the source and are kept apart here."}
{"compound": "tetrakis tetrahydrofuran adduct of a magnesium-dicobalt hexacarbonyl bismethyldiphenylphosphine complex [(C4 H8 O)4 Mg[Co(CO)3 PCH3 (C6 H5)2]2]", "values": [{"measurement": "hexene-1 converted to C7 aldehydes and C7 alcohols", "setting": "[1]; [5]", "value": 99, "unit": "%"}, {"measurement": "reacted product that was an aldehyde", "setting": "[1]; [5]", "value": 87, "unit": "%"}, {"measurement": "conversion of 1-hexene to heptaldehydes", "setting": "[1]; elevated pressures", "value": "> 99", "unit": "%"}, {"measurement": "selectivity, 1-hexene to heptaldehydes", "setting": "[1]; elevated pressures", "value": 87, "unit": "%"}]}
{"compound": "CC(=O)[CH-]C(C)=O.CC(=O)[CH-]C(C)=O.CC(=O)[CH-]C(C)=O.[Co+3]", "note": "[Co(C5 H7 O2)3]", "values": [{"measurement": "% Conversion (Table II)", "setting": "[2]; [6]", "value": 16, "unit": "%"}, {"measurement": "% Selectivity (Table II; additional product was dimethyl ether)", "setting": "[2]; [6]", "value": 23, "unit": "%"}]}
{"compound": "[I-].[Li+]", "note": "[LiI]", "values": [{"measurement": "% Conversion to Methyl Acetate (Table III)", "setting": "[2]", "value": 0.6, "unit": "%"}, {"measurement": "% Selectivity to Methyl Acetate (Table III)", "setting": "[2]", "value": 100, "unit": "%"}, {"measurement": "methyl acetate (drawing 17)", "setting": "[2]", "value": 1, "unit": "mL"}]}
{"compound": "[C-]#[O+].[C-]#[O+].[C-]#[O+].[C-]#[O+].[C-]#[O+].[C-]#[O+].[C-]#[O+].[C-]#[O+].[Co].[Co]", "note": "[Co2 (CO)8]", "values": [{"measurement": "% Conversion (Table II)", "setting": "[2]; [7]", "value": 3.5, "unit": "%"}, {"measurement": "% Selectivity (Table II; additional product was dimethyl ether)", "setting": "[2]; [7]", "value": 6.4, "unit": "%"}]}
{"compound": "I", "note": "[HI]", "values": [{"measurement": "% Conversion to Methyl Acetate (Table III)", "setting": "[2]", "value": 8, "unit": "%"}, {"measurement": "% Selectivity to Methyl Acetate (Table III)", "setting": "[2]", "value": 47, "unit": "%"}, {"measurement": "methyl acetate (drawing 17)", "setting": "[2]", "value": 6.6, "unit": "mL"}]}
{"compound": "CCI", "note": "[CH3 CH2 I]", "values": [{"measurement": "% Conversion to Methyl Acetate (Table III)", "setting": "[2]; [8]", "value": 20, "unit": "%"}, {"measurement": "% Selectivity to Methyl Acetate (Table III)", "setting": "[2]; [8]", "value": 85, "unit": "%"}, {"measurement": "methyl acetate (drawing 17)", "setting": "[2]", "value": 17.5, "unit": "mL"}]}
{"compound": "[C-]#[O+].[Cl-].[Rh].c1ccc(P(c2ccccc2)c2ccccc2)cc1.c1ccc(P(c2ccccc2)c2ccccc2)cc1", "note": "[((C6 H5)3 P)2 Rh(CO)Cl]", "values": [{"measurement": "t1/2", "setting": "[3]; 1n 2/k", "value": 9.32, "unit": "min"}, {"measurement": "k (pseudo 1st order reaction rate constant)", "setting": "[3]; 1000 psig CO/H2 50/50", "value": 0.0744, "unit": "min⁻¹"}, {"measurement": "n-C4 H8 O (percent straight chain isomer)", "setting": "[3]; 1000 psig CO/H2 50/50, benzene, 0.5 mmoles catalyst based on Rh", "value": 56, "unit": "%"}]}
{"compound": "CI", "note": "[CH3 I, methyl iodide]", "values": [{"measurement": "% Conversion to Methyl Acetate (Table IV)", "setting": "[2]; [9]", "value": 0.0, "unit": "%"}, {"measurement": "% Selectivity to Methyl Acetate (Table IV)", "setting": "[2]; [9]", "value": 0.0, "unit": "%"}, {"measurement": "methyl acetate (drawing 15) produced", "setting": "[2]; CH3I 1.6 mmole, 1.0 mmole catalyst, 1000 psi CO, 175° C.", "value": 0.5}, {"measurement": "CH3 OH consumed", "setting": "[2]; CH3I 1.6 mmole, 1000 psi CO, 175° C.", "value": 1.2, "unit": "mL"}, {"measurement": "% Conversion to Methyl Acetate (Table IV)", "setting": "[2]; [10]", "value": 22, "unit": "%"}, {"measurement": "% Selectivity to Methyl Acetate (Table IV)", "setting": "[2]; [10]", "value": 100, "unit": "%"}, {"measurement": "% Conversion to Methyl Acetate (Table IV)", "setting": "[2]; [11]", "value": 24, "unit": "%"}, {"measurement": "% Selectivity to Methyl Acetate (Table IV)", "setting": "[2]; [11]", "value": 100, "unit": "%"}, {"measurement": "% Conversion to Methyl Acetate (Table IV)", "setting": "[2]; [12]", "value": 29, "unit": "%"}, {"measurement": "% Selectivity to Methyl Acetate (Table IV)", "setting": "[2]; [12]", "value": 97, "unit": "%"}, {"measurement": "% Conversion to Methyl Acetate (Table IV)", "setting": "[2]; [13]", "value": 24, "unit": "%"}, {"measurement": "% Selectivity to Methyl Acetate (Table IV)", "setting": "[2]; [13]", "value": 85, "unit": "%"}, {"measurement": "methyl acetate (drawing 15) produced", "setting": "[2]; CH3I 8.0 mmole, 1.0 mmole catalyst, 1000 psi CO, 175° C.", "value": 22.4}, {"measurement": "CH3 OH consumed", "setting": "[2]; CH3I 8.0 mmole, 1000 psi CO, 175° C.", "value": 30.0, "unit": "mL"}, {"measurement": "% Conversion to Methyl Acetate (Table IV)", "setting": "[2]; [14]", "value": 5.4, "unit": "%"}, {"measurement": "% Selectivity to Methyl Acetate (Table IV)", "setting": "[2]; [14]", "value": 15, "unit": "%"}, {"measurement": "% Selectivity to Methyl Acetate (Table IV)", "setting": "[2]; CH3I 16.0 mmole, 4.25 hr, 175° C., 4000 psig CO", "value": 74, "unit": "%"}, {"measurement": "% Conversion to Methyl Acetate (Table IV)", "setting": "[2]; [15]", "value": 4.5, "unit": "%"}, {"measurement": "% Selectivity to Methyl Acetate (Table IV)", "setting": "[2]; [15]", "value": 12, "unit": "%"}, {"measurement": "methyl acetate (drawing 15) produced", "setting": "[2]; CH3I 16.0 mmole, 1.0 mmole catalyst, 1000 psi CO, 175° C.", "value": 4.5}, {"measurement": "CH3 OH consumed", "setting": "[2]; CH3I 16.0 mmole, 1000 psi CO, 175° C., CH3OH is dehydrated to CH3OCH3", "value": 45.0, "unit": "mL"}, {"measurement": "% Conversion to Methyl Acetate (Table IV)", "setting": "[2]; [16]", "value": 0.0, "unit": "%"}, {"measurement": "% Selectivity to Methyl Acetate (Table IV)", "setting": "[2]; [16]", "value": 0.0, "unit": "%"}, {"measurement": "conversion to CH3 OCH3", "setting": "[2]; [16]", "value": 100, "unit": "%"}, {"measurement": "methyl acetate (drawing 15) produced", "setting": "[2]; CH3I 48.0 mmole, 1.0 mmole catalyst, 1000 psi CO, 175° C.", "value": 1.2}, {"measurement": "CH3 OH consumed", "setting": "[2]; CH3I 48.0 mmole, 1000 psi CO, 175° C., CH3OH is dehydrated to CH3OCH3", "value": "90.", "unit": "ml"}, {"measurement": "% Selectivity to Methyl Acetate (Table III)", "setting": "[2]; cocatalyst 8.0 mmole, 3.25 hr, 1.0 mmole catalyst, 175° C., 4000 psi CO", "value": 97, "unit": "%"}, {"measurement": "% Conversion to Methyl Acetate (Table III)", "setting": "[2]; [17]", "value": 24, "unit": "%"}, {"measurement": "% Selectivity to Methyl Acetate (Table III)", "setting": "[2]; [17]", "value": 85, "unit": "%"}, {"measurement": "% Conversion to Methyl Acetate (Table III)", "setting": "[2]; cocatalyst 16.0 mmole, 4.25 hr, 1.0 mmole catalyst, 175° C., 4000 psi CO", "value": 25, "unit": "%"}, {"measurement": "methyl acetate (drawing 17)", "setting": "[2]", "value": "19.8 mL and 29.6 mL and 21.4 mL"}, {"measurement": "% Conversion to Methyl Acetate (Table IV)", "setting": "[4]; CH3I 16.0 mmole, 4.25 hr, 4000 psig CO", "value": 25, "unit": "%"}, {"measurement": "% Conversion to Methyl Acetate (Table III)", "setting": "[4]; cocatalyst 8.0 mmole, 3.25 hr, 1.0 mmole catalyst, 4000 psi CO", "value": 29, "unit": "%"}, {"measurement": "% Selectivity to Methyl Acetate (Table III)", "setting": "[4]; cocatalyst 16.0 mmole, 4.25 hr, 1.0 mmole catalyst, 4000 psi CO", "value": 74, "unit": "%"}]}
{"compound": "Ic1ccccc1", "note": "[C6 H5 I]", "values": [{"measurement": "% Conversion to Methyl Acetate (Table III)", "setting": "[2]; [18]", "value": 25, "unit": "%"}, {"measurement": "% Selectivity to Methyl Acetate (Table III)", "setting": "[2]; [18]", "value": 52, "unit": "%"}, {"measurement": "methyl acetate (drawing 17)", "setting": "[2]; cocatalyst 8.0 mmole, 1000 psi CO, 175° C., 90 hours", "value": 22.3, "unit": "mL"}]}
{"compound": "CBr", "note": "[CH3 Br]", "values": [{"measurement": "activity as cocatalyst", "setting": "[2]", "value": "inactive"}]}
